This is an account of results in patent US20230135152A1 (ACURASTEM INCORPORATED, priority 2020, published 2023).

The target in assay [1] is T1, PIKFYVE (Homo sapiens, UniProt Q9Y2I7). Kind of assay: PIKFYVE assay (luciferase ADP-Glo kinase assay, Promega). It is filed as biochemical. The method, boiled down: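 Kinase activity measured with a luciferase-based ADP-Glo read-out, which quantifies ADP formed by the enzyme.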
The target in assay [2] is T1, PIKFYVE. Kind of assay: Cell-based Pikfyve inhibition activity assay (EEA1 staining, mean vesicle size in BJ fibroblast cells). As to conditions: Table 4, 4 hours treatment, 3 μM Apilimod = 100% inhibition. The method, boiled down: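 BJ fibroblasts treated 4 h at 37° C with eleven 3-fold doses (0.03-3000 nM), then fixed and stained for EEA1. Confocal images (20×, 16 tiles/well) analysed for mean vesicle size. Normalised to 0.5% DMSO (0%) and 3 μM apilimod (100%); dose-response fitted with variable slope.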

T1 sequence (Q9Y2I7 whole entry): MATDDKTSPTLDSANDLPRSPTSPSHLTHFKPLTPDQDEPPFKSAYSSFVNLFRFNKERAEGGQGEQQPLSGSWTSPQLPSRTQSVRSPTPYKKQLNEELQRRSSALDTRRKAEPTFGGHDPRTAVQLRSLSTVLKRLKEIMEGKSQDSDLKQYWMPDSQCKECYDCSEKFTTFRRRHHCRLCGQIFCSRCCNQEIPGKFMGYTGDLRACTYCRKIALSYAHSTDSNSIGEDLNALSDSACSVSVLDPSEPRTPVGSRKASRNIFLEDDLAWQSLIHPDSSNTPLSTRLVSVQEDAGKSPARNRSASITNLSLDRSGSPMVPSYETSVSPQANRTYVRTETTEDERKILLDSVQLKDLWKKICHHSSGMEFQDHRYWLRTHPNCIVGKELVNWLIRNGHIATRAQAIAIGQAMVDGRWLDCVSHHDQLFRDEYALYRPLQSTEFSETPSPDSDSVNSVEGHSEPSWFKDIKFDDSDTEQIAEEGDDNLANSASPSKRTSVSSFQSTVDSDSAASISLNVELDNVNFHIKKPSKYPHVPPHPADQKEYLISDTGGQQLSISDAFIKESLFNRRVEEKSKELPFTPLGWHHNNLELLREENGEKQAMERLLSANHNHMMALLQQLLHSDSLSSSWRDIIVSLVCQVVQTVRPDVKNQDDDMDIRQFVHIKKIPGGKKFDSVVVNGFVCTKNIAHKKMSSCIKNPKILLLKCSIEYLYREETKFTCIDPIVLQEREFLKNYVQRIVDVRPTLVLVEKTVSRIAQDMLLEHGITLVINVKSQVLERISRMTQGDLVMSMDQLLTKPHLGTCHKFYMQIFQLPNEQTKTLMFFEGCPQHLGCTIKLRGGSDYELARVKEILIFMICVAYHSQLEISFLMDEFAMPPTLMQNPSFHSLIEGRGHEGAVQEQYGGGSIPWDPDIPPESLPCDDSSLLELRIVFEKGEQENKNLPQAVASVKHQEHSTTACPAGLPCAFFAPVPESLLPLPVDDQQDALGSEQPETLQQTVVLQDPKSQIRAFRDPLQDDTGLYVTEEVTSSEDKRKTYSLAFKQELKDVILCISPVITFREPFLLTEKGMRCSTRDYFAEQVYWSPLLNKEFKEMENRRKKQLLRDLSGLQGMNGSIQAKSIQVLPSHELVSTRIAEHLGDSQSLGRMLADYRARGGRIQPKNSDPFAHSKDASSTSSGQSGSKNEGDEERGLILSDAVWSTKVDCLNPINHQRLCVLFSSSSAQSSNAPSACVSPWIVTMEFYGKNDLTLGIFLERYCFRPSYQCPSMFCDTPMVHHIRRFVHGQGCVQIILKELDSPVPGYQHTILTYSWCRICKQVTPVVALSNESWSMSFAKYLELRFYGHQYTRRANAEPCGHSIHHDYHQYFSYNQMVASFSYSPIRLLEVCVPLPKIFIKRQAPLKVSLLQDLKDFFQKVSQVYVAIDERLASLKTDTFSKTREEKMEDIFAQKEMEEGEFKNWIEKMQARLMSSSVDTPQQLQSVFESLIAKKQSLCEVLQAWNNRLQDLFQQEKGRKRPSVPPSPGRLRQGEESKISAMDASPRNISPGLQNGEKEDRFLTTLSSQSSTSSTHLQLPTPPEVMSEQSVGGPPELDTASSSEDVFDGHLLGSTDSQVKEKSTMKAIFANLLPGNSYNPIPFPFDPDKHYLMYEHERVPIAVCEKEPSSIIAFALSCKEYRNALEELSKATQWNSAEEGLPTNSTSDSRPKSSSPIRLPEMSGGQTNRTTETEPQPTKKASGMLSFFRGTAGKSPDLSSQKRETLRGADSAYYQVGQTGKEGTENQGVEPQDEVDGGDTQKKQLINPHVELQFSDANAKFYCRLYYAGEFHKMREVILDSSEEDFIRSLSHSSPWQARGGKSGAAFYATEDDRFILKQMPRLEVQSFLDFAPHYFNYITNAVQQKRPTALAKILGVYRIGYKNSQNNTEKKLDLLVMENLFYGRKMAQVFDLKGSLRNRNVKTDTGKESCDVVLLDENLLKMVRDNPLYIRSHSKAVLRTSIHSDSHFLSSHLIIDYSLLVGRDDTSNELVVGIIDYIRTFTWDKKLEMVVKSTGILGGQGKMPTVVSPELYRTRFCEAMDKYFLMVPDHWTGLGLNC

At PIKFYVE [1] (Table 3), `Cc1cccc(-c2ccn(-c3cc(N4CCOCC4)nc(NC(=O)CC4CC4)n3)n2)c1` [Compound 188, 2-cyclopropyl-N-(4-morpholino-6-(3-(m-tolyl)-1H-pyrazol-1-yl)pyrimidin-2-yl)acetamide] displayed an IC50 below 3 nM. In addition, on PIKFYVE [2], the concentration for a half-maximal effect (EC50) lay within 100 to 500 nM.

At PIKFYVE [1] (Table 3), `Cc1cccc(-c2ccn(-c3cc(N4CCOCC4)nc(N(C)C)n3)n2)c1` [Compound 107, N,N-dimethyl-4-morpholino-6-(3-(m-tolyl)-1H-pyrazol-1-yl)pyrimidin-2-amine] displayed an IC50 of 10 to 100 nM. The molecule further showed an EC50 on PIKFYVE [2] of 500 to 5000 nM.

The molecule `CCc1cc(-c2ccccc2)nn1-c1cc(N2CCOCC2)nc(OCCc2cnn(C)c2)n1` [Compound 218, 4-(6-(5-ethyl-3-phenyl-1H-pyrazol-1-yl)-2-(2-(1-methyl-1H-pyrazol-4-yl)ethoxy)pyrimidin-4-yl)morpholine] yielded an IC50 at PIKFYVE [1] (Table 3) below 3 nM. On PIKFYVE [2], this molecule returned an EC50 of 20 to 100 nM.

Molecule `Cn1cc(CCOc2nc(Oc3cc(-c4ccccc4)[nH]n3)cc(N3CCOCC3)n2)cn1` [Compound 215, 4-(2-(2-(1-methyl-1H-pyrazol-4-yl)ethoxy)-6-((5-phenyl-1H-pyrazol-3-yl)oxy)pyrimidin-4-yl)morpholine] gave an IC50 on PIKFYVE [1] (Table 3) of 10 to 100 nM. The EC50 on PIKFYVE [2] lay in the range of 500 to 5000 nM.

As for `Cc1cccc(-c2ccn(-c3cc(N4CCOCC4)c4[nH]c(C)cc4n3)n2)c1` [Compound 334, 4-(2-methyl-5-(3-(m-tolyl)-1H-pyrazol-1-yl)-1H-pyrrolo[3,2-b]pyridin-7-yl)morpholine], the IC50 against PIKFYVE [1] (Table 3) lay within 10 to 100 nM. The same molecule registered a concentration giving a half-maximal response (EC50) on PIKFYVE [2] of 500 to 5000 nM.

Regarding `C[C@@H](O)c1cccc(-c2ccn(-c3cc(N4CCOCC4)nc(OCCc4cnn(C)c4)n3)n2)c1` (single isomer, unassigned) [Compound 315], the IC50 against PIKFYVE [1] (Table 3) was below 3 nM. Also, the EC50 on PIKFYVE [2] was below 20 nM.

For `Cc1cccc(-c2ccn(-c3cc(N4CCOCC4)nc([C@@H]4CCCO4)n3)n2)c1` (single isomer, unassigned) [Compound 328], the IC50 against PIKFYVE [1] (Table 3) was in the range of 3 to 10 nM. The 50% effective concentration (EC50) on PIKFYVE [2] is above 5000 nM.

Regarding `Cn1cc(CCOc2nc(N3CCOCC3)cc(-n3ccc(-c4cccnc4)n3)n2)cn1` [Compound 71, 4-(2-(2-(1-methyl-1H-pyrazol-4-yl)ethoxy)-6-(3-(pyridin-3-yl)-1H-pyrazol-1-yl)pyrimidin-4-yl)morpholine], the IC50 against PIKFYVE [1] (Table 2) is below 5 nM. For the same molecule, the EC50 on PIKFYVE [2] was 500 to 5000 nM.

`Cc1cccc(-c2ccn(-c3cc(N4CCOCC4)nc(OCCc4cnn(C)c4)n3)n2)n1` [Compound 190, 4-(2-(2-(1-methyl-1H-pyrazol-4-yl)ethoxy)-6-(3-(6-methylpyridin-2-yl)-1H-pyrazol-1-yl)pyrimidin-4-yl)morpholine] returned an IC50 on PIKFYVE [1] (Table 3) of 3 to 10 nM. For the same molecule, the EC50 at PIKFYVE [2] lay in the range of 100 to 500 nM.

Molecule `Cn1cc(CCOc2nc(N3CCOCC3)cc(-n3ccc(Oc4ccncc4)n3)n2)cn1` [Compound 303, 4-(2-(2-(1-methyl-1H-pyrazol-4-yl)ethoxy)-6-(3-(pyridin-4-yloxy)-1H-pyrazol-1-yl)pyrimidin-4-yl)morpholine] returned an IC50 at PIKFYVE [1] (Table 3) of 100 to 5000 nM. In addition, the EC50 at PIKFYVE [2] is above 5000 nM.

For `Cc1cccc(-c2ccn(-c3cc(N4CCOCC4)nc([C@H]4COCCO4)n3)n2)c1` (single isomer, unassigned) [Compound 325], the IC50 against PIKFYVE [1] (Table 3) is 10 to 100 nM. Also, at PIKFYVE [2], the EC50 was in the range of 500 to 5000 nM.

`CNCCc1cc(-c2ccccc2)nn1-c1cc(N2CCOCC2)nc(OCCc2cnn(C)c2)n1` [Compound 221, N-methyl-2-(1-(2-(2-(1-methyl-1H-pyrazol-4-yl)ethoxy)-6-morpholinopyrimidin-4-yl)-3-phenyl-1H-pyrazol-5-yl)ethan-1-amine] had an IC50 against PIKFYVE [1] (Table 3) below 3 nM. This molecule returned an EC50 at PIKFYVE [2] of 20 to 100 nM.

On PIKFYVE [1] (Table 3), `Cc1cccc(-c2ccn(-c3cc(N4CCOCC4)nc([C@H](CO)OC(F)F)n3)n2)c1` (single isomer, unassigned) [Compound 310] returned an IC50 of 10 to 100 nM. For the same molecule, at PIKFYVE [2], the EC50 was in the range of 500 to 5000 nM.

Turning to `Cc1cccc(-c2ccn(-c3cc(N4CCOCC4)nc(OCCc4cnn(C)c4)n3)n2)c1` [Compound 56, 4-(2-(2-(1-methyl-1H-pyrazol-4-yl)ethoxy)-6-(3-(m-tolyl)-1H-pyrazol-1-yl)pyrimidin-4-yl)morpholine], on PIKFYVE [1] (Table 2), the IC50 is below 5 nM. Also, the EC50 on PIKFYVE [2] is below 20 nM.

In the case of `Cc1cccc(-c2ccn(-c3cc(N4CCOCC4)nc([C@@H]4COCCO4)n3)n2)c1` (single isomer, unassigned) [Compound 324], the half-inhibitory concentration (IC50) on PIKFYVE [1] (Table 3) fell in the range of 10 to 100 nM. Moreover, at PIKFYVE [2], the EC50 was in the range of 500 to 5000 nM.

Molecule `COC(c1ccccc1)c1nc(N2CCOCC2)cc(-n2ccc(-c3ccccc3)n2)n1` (centres unmarked) [Compound 78, 4-(2-(methoxy(phenyl)methyl)-6-(3-phenyl-1H-pyrazol-1-yl)pyrimidin-4-yl)morpholine] displayed an IC50 against PIKFYVE [1] (Table 2) of 5 to 100 nM. The EC50 on PIKFYVE [2] is 500 to 5000 nM.

On PIKFYVE [1] (Table 3), `Cn1cc(CCOc2nc(N3CCOCC3)cc(-n3ccc(-c4c[nH]c5ccccc45)n3)n2)cn1` [Compound 203, 4-(6-(3-(1H-indol-3-yl)-1H-pyrazol-1-yl)-2-(2-(1-methyl-1H-pyrazol-4-yl)ethoxy)pyrimidin-4-yl)morpholine] showed an IC50 of 10 to 100 nM. The EC50 on PIKFYVE [2] fell in the range of 100 to 500 nM.

`Cc1cccc(-c2ccn(-c3cc(N4CCOCC4)nc(C)n3)n2)c1` [Compound 81, 4-(2-methyl-6-(3-(m-tolyl)-1H-pyrazol-1-yl)pyrimidin-4-yl)morpholine] displayed an IC50 against PIKFYVE [1] (Table 2) below 5 nM. The molecule further displayed an EC50 on PIKFYVE [2] of 100 to 500 nM.

On to `COC(CO)c1nc(N2CCOCC2)cc(-n2nc(-c3c[nH]c4ccccc34)cc2C)n1` (single isomer, unassigned) [Compound 260, 2-(4-(3-(1H-indol-3-yl)-5-methyl-1H-pyrazol-1-yl)-6-morpholinopyrimidin-2-yl)-2-methoxyethan-1-ol], for which the IC50 against PIKFYVE [1] (Table 3) was below 3 nM. At PIKFYVE [2], this molecule yielded an EC50 below 20 nM.

With `COCc1cccc(-c2ccn(-c3cc(N4CCOCC4)nc([C@H](CO)OC)n3)n2)c1` [Compound 277, (R)-2-methoxy-2-(4-(3-(3-(methoxymethyl)phenyl)-1H-pyrazol-1-yl)-6-morpholinopyrimidin-2-yl)ethan-1-ol], the half-inhibitory concentration (IC50) against PIKFYVE [1] (Table 3) fell in the range of 3 to 10 nM. Moreover, the EC50 at PIKFYVE [2] is 100 to 500 nM.

At PIKFYVE [1] (Table 2), `Cc1cccc(-c2ccn(-c3cc(N4CCOCC4)nc(N4CCCC4=O)n3)n2)c1` [Compound 61, 1-(4-morpholino-6-(3-(m-tolyl)-1H-pyrazol-1-yl)pyrimidin-2-yl)pyrrolidin-2-one] returned an IC50 of 5 to 100 nM. This molecule had an EC50 on PIKFYVE [2] of 100 to 500 nM.

Molecule `CC[C@@H](OC)c1nc(N2CCOCC2)cc(-n2ccc(-c3cccc(C)c3)n2)n1` (single isomer, unassigned) [Compound 322] registered an IC50 on PIKFYVE [1] (Table 3) of 3 to 10 nM. For the same molecule, on PIKFYVE [2], the concentration giving a half-maximal response (EC50) is 500 to 5000 nM.

Consider `COCc1nc(N2CCOCC2)cc(-n2ccc(-c3ccccc3)n2)n1` [Compound 69], for which, on PIKFYVE [1] (Table 2), the IC50 is 5 to 100 nM. Further, the half-maximal effective concentration (EC50) on PIKFYVE [2] was in the range of 500 to 5000 nM.

In the case of `COCc1cccc(-c2ccn(-c3cc(N4CCOCC4)nc([C@@H](CO)OC)n3)n2)c1` [Compound 276, (S)-2-methoxy-2-(4-(3-(3-(methoxymethyl)phenyl)-1H-pyrazol-1-yl)-6-morpholinopyrimidin-2-yl)ethan-1-ol], the IC50 on PIKFYVE [1] (Table 3) fell in the range of 3 to 10 nM. In addition, at PIKFYVE [2], the EC50 was 100 to 500 nM.

`Cc1cccc(-c2cc([C@H](C)O)n(-c3cc(N4CCOCC4)nc(OCCc4cnn(C)c4)n3)n2)c1` (single isomer, unassigned) [Compound 313] registered an IC50 against PIKFYVE [1] (Table 3) below 3 nM. The same molecule came in with an EC50 at PIKFYVE [2] below 20 nM.

One may read the IC50 as the midpoint of a concentration-inhibition curve. A higher IC50 goes with weaker potency. As a reminder, the EC50 is the midpoint of the concentration-response curve. Read a low EC50 as higher potency in that assay.
